Measurements from ChEMBL document CHEMBL1649421, “New drug-like hydroxyphenylnaphthol steroidomimetics as potent and selective 17β-hydroxysteroid dehydrogenase type 1 inhibitors for the treatment of estrogen-dependent diseases” (J Med Chem, 2011).

How the values were obtained:
[1] = biological target: T1, 17-beta-hydroxysteroid dehydrogenase type 1 (Homo sapiens) (UniProt P14061); assay: Inhibition of [3H]E1 binding to human recombinant 17beta-HSD1 expressed in baculovirus-infected Sf9 cells at 100 nM after 10 mins by fluid scintillation counting
T1 sequence (whole entry): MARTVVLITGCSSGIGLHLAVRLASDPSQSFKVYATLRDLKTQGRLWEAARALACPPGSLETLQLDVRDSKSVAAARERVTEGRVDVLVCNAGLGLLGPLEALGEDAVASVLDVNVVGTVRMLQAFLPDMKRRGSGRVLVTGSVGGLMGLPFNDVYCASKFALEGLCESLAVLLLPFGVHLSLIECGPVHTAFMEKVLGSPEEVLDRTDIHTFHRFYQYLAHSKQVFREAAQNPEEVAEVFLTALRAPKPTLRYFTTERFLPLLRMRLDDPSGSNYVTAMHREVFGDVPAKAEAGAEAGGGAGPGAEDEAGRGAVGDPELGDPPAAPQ

[2] = biological target: T1, 17-beta-hydroxysteroid dehydrogenase type 1 (Homo sapiens); assay: Inhibition of [3H]E1 binding to human recombinant 17beta-HSD1 expressed in baculovirus-infected Sf9 cells at 1 uM after 10 mins by fluid scintillation counting
[3] = biological target: T2, 17-beta-hydroxysteroid dehydrogenase type 2 (Homo sapiens) (UniProt P37059); assay: Inhibition of [3H]E2 binding to human recombinant 17beta-HSD2 expressed in baculovirus-infected Sf9 cells at 100 nM after 10 mins by fluid scintillation counting
T2 sequence (whole entry): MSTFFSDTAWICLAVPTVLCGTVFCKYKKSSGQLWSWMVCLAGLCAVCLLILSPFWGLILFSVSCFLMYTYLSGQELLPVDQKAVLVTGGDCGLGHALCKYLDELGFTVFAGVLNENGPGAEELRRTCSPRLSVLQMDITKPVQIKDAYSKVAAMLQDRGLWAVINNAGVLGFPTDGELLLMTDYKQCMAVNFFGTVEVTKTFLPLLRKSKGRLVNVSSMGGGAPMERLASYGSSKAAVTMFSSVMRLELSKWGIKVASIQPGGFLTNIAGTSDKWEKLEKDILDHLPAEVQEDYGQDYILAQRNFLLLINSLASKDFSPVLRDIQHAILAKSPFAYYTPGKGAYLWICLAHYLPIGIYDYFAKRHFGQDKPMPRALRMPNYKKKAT

[4] = biological target: T2, 17-beta-hydroxysteroid dehydrogenase type 2 (Homo sapiens); assay: Inhibition of [3H]E2 binding to human recombinant 17beta-HSD2 expressed in baculovirus-infected Sf9 cells at 1 uM after 10 mins by fluid scintillation counting
[5] = biological target: T3, 17-beta-hydroxysteroid dehydrogenase type 1 (Homo sapiens, UniProt P14061); assay: Displacement of [3H]E1 from human placental 17beta-HSD1 after 10 mins by fluid scintillation counting
T3 sequence (P14061 whole entry): T1 sequence (whole entry)

[6] = organism: Homo sapiens; assay: Selectivity ratio of IC50 for human placental 17beta-HSD2 to IC50 for human placental 17beta-HSD1
[7] = biological target: T3, 17-beta-hydroxysteroid dehydrogenase type 1; assay: Displacement of [3H]E1 from 17beta-HSD1 in human T47D cells after 10 mins by fluid scintillation counting; assay type: cell-based
[8] = biological target: T4, Estrogen receptor (Homo sapiens) (UniProt P03372); assay: Displacement of [3H]E2 from human recombinant ERalpha by liquid scintillation counting relative to estradiol
T4 sequence (whole entry): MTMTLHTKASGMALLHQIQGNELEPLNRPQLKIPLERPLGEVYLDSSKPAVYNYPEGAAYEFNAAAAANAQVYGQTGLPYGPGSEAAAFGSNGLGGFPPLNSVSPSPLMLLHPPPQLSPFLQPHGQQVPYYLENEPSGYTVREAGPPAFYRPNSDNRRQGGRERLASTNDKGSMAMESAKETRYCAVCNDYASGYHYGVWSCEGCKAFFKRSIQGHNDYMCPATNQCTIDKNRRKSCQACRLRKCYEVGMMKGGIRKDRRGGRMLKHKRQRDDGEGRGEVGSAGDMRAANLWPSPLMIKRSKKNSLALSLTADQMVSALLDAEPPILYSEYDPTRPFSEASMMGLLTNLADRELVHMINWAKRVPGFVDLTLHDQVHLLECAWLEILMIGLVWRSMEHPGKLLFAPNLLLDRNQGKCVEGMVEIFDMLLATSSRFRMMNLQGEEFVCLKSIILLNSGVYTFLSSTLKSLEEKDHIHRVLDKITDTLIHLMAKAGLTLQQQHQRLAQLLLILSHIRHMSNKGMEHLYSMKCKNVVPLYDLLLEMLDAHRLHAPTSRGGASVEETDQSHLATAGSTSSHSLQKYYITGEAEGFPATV

[9] = biological target: Estrogen receptor beta (Homo sapiens) (UniProt Q92731); assay: Displacement of [3H]E2 from human recombinant ERbeta by liquid scintillation counting relative to estradiol
[10] = Apparent permeability across human Caco2 cells after 180 mins by LC-MS/MS analysis; assay type: ADME, cell-based; details: Caco-2
[11] = tested on: Liver microsomes; assay: Metabolic stability in human liver microsomes up to 45 mins by LC-MS/MS analysis; assay type: ADME, Microsome; details: 0.75 h
[12] = Cmax in Wistar rat at 50 mg/kg, po administered as single dose by LC-MS/MS analysis; assay type: ADME, organism-based; design: dose 50 mg/kg, route oral; details: in vivo
[13] = biological target: T5, 17-beta-hydroxysteroid dehydrogenase type 2 (Homo sapiens, UniProt P37059); assay: Displacement of [3H]E2 from human placental 17beta-HSD2 after 10 mins by fluid scintillation counting
T5 sequence (P37059 whole entry): T2 sequence (whole entry)

[14] = Half life in Sprague-Dawley rat liver microsomes by LC-MS/MS analysis; assay type: ADME, Microsome
[15] = tested on: Liver microsomes; assay: Intrinsic clearance in Sprague-Dawley rat liver microsomes after 60 mins by LC-MS/MS analysis; assay type: ADME, Microsome; details: 1 h
[16] = biological target: T6, Cytochrome P450 1A2 (Homo sapiens, UniProt P05177); assay: Inhibition of human CYP1A2; assay type: ADME
T6 sequence (P05177 whole entry): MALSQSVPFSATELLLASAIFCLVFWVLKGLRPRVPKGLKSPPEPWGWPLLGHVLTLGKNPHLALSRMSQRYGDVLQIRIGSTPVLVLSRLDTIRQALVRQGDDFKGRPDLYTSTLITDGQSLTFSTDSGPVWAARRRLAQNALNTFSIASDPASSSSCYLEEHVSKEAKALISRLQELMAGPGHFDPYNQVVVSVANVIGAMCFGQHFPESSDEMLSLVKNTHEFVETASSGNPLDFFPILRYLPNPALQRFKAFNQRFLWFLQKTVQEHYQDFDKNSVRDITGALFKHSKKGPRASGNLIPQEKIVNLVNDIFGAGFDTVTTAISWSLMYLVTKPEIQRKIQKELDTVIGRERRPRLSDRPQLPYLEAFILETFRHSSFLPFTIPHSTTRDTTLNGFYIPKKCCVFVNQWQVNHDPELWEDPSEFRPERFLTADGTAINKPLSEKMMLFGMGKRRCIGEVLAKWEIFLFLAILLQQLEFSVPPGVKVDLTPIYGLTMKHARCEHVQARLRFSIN

[17] = tested on: Rattus norvegicus; assay: Clast in Wistar rat at 50 mg/kg, po administered as single dose by LC-MS/MS analysis; assay type: ADME, organism-based; design: dose 50 mg/kg, route oral; details: in vivo
[18] = Tmax in Wistar rat at 50 mg/kg, po administered as single dose by LC-MS/MS analysis; assay type: ADME, organism-based; design: dose 50 mg/kg, route oral; details: in vivo
[19] = tested on: Rattus norvegicus; assay: Tlast in Wistar rat at 50 mg/kg, po administered as single dose by LC-MS/MS analysis; assay type: ADME, organism-based; design: dose 50 mg/kg, route oral; details: in vivo
[20] = Half life in Wistar rat at 50 mg/kg, po administered as single dose by LC-MS/MS analysis; assay type: ADME, organism-based; design: dose 50 mg/kg, route oral; details: in vivo
[21] = AUC (0 to t) in Wistar rat at 50 mg/kg, po administered as single dose by LC-MS/MS analysis; assay type: ADME, organism-based; design: dose 50 mg/kg, route oral; details: plasma

Sequence of Estrogen receptor beta (Homo sapiens) (Q92731 whole entry): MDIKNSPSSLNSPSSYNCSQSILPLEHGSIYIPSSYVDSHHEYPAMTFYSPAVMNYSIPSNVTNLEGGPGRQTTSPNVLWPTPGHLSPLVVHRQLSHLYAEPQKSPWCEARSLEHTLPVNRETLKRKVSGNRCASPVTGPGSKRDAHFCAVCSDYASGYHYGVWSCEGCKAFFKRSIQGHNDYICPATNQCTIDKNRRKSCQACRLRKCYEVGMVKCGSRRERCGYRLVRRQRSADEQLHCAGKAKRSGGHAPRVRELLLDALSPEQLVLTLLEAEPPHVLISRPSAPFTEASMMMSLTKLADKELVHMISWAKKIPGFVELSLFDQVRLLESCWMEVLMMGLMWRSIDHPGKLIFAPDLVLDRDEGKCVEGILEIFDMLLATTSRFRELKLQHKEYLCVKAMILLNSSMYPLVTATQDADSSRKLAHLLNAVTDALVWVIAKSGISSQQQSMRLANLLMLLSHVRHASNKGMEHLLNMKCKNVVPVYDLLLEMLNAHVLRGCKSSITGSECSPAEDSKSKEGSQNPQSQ

Row | inhibition [1] [%] | inhibition [2] [%] | inhibition [3] [%] | inhibition [4] [%] | IC50 [5] [nM] | Ratio IC50 [6] | IC50 [7] [nM] | RBA [8] [%] | RBA [9] [%] | Papp at 3 h [10] [×10⁻⁶ cm/s] | SMILES | further results
1 | 88 | 91 | 31 | 71 | 15 | 27 | 71 | 0.01 | < 0.01 | 19 | CS(=O)(=O)Nc1cccc(-c2c(O)ccc3cc(-c4cccc(O)c4)ccc23)c1 | Stability [11]: Stable
2 | 87 | 92 | 66 | 90 | 26 | 45 | 165 | 0.01 | 0.01 | 14 | Oc1cccc(-c2ccc3c(-c4cccnc4)c(O)ccc3c2)c1 | Cmax [12]: 16 ng/mL; IC50 [13]: 1160 nM; half-life [14]: 0.233 h; CL [15]: 340 µL/min; IC50 [16]: 10 nM; Cz [17]: 18 ng/mL; Tmax [18]: 2 h; tz [19]: 8 h; half-life [20]: 1.5 h; AUC(0-t) [21]: 203 ng·h/mL
